Test [1] has as its system T-Rex 293 cell line SC3 cells lacking increased expression of androgen receptor protein. As to the kind of experiment: Cellular growth inhibition, T-Rex 293 SC3 cells without doxycycline. The class given is cell-based. The following applies: not exposed to doxycycline, 72 hours, CellTiter-Glo 2.0. In outline:
(§1)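 Growth inhibition is measured in an inducible AR-expressing T-Rex 293 clone, SC3, cultured with or without 10 ng/mL doxycycline in hormone-depleted medium. Test compounds are applied for 72 hours. GI50 values derive from CellTiter-Glo 2.0 signal fitted by four-parameter regression.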

The subject of test [2] is T47D cells. The experiment in a line: Cellular growth inhibition assay for T47D cells. The class given is cell-based. The following applies: Homo sapiens, 72 hours, CellTiter-Glo 2.0. The procedure: T47D cells were purchased from American Type Cell Culture (ATCC Cat #HTB-133) and then seeded on poly-D-lysine coated, black clear-bottom 384-well plates at 3000/well in 25 μL Dulbecco's Modified Eagle Medium (DMEM) supplemented with 10% w/w Fetal bovine serum (FBS), 0.2 units/mL recombinant human insulin (Gibco Cat #12585014), and 1% w/w Pen-Strep. Pen-Strep is a commercially available mixture of penicillin G and streptomycin, which is used in mammalian cell culture media to prevent bacterial contamination. Dulbecco's Modified Eagle Medium (DMEM) supplemented with 10% w/w fetal bovine serum (FBS), 0.2 units/mL recombinant human insulin, and 1% w/w Pen-Strep is herein referred to as Treatment Medium. Following seeding of cells in the plates, the plates were spun at 300×g for 30 seconds, then equilibrated to room temperature for 30 minutes, and then deposited in a humidified tissue culture incubator maintained at 37° C. with 5% CO2.
At 24 hours after seeding of the cells, dilutions of test compound were prepared in DMSO and dissolved in Treatment Medium, to achieve a final DMSO concentration of 0.5% w/w, thereby providing the Test Compound Solution. A 25 μL aliquot of the Test Compound Solution was added to cells in the well plates. An equal volume of a solution containing DMSO and Treatment Medium was used as a negative control. Following treatment of cells with Test Compound Solution or said equal volume of a solution containing DMSO and Treatment Medium, the plates were spun at 300×g for 30 seconds, and then left in an incubator for 72 hours.
At the end of the treatment duration, cell viability was quantified with CellTiter-Glo 2.0 reagent (Promega Cat #G9243). For this purpose, plates were equilibrated to room temperature for 30 minutes, and then 25 μL of CellTiter-Glo 2.0 reagent was added to cells in the plate wells. Plates were then agitated on a shaker for two minutes at 500 rpm and subsequently incubated at room temperature for 10 minutes. Following incubation, the plates were spun at 3000×g for 30 seconds, then sealed with an optical adhesive cover, and luminescence readings were measured with an EnVision Plate Reader (Perkin Elmer).
Data was normalized using zero luminescence for baseline. A four-parameter non-linear regression curve fit was applied to dose-response data in GraphPad Prism data analysis software to determine the half-maximal growth inhibitory concentration (GI50) for each test compound.
In general terms: In ATP-based viability assays light output follows the ATP content of the culture.

In test [3] the target is T1, CDK9 (Homo sapiens, UniProt P50750).
T1 construct: made in house; host or cells: E. coli BL21-derived host (T7 phage) or HEK-293 ('BEK-293' [sic])
T1 sequence (P50750 whole entry): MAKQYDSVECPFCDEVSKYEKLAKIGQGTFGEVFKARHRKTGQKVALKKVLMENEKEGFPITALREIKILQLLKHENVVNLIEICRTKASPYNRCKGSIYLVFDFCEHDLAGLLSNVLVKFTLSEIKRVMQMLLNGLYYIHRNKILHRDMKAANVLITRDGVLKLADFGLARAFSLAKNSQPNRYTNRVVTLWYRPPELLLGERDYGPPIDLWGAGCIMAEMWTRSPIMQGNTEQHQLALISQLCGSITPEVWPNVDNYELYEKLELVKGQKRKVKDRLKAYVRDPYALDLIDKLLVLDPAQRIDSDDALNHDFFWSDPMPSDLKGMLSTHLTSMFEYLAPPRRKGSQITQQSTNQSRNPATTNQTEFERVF
As to the kind of experiment: KdELECT binding assay, CDK9. The following applies: CDK9, Table 7. The procedure:
Compounds were tested using a KdELECT. Kinase-tagged T7 phage strains were prepared in an E. coli host derived from the BL21 strain. E. coli were grown to log-phase and infected with T7 phage and incubated with shaking at 32° C. until lysis. The lysates were centrifuged and filtered to remove cell debris. The remaining kinases were produced in BEK-293 cells and subsequently tagged with DNA for qPCR detection. Streptavidin-coated magnetic beads were treated with biotinylated small molecule ligands for 30 minutes at room temperature to generate affinity resins for kinase assays. The liganded beads were blocked with excess biotin and washed with blocking buffer (SeaBlock (Pierce), 1% BSA, 0.05% Tween 20, 1 mM DTT) to remove unbound ligand and to reduce non-specific binding. Binding reactions were assembled by combining kinases, liganded affinity beads, and test compounds in 1× binding buffer (20% SeaBlock, 0.17×PBS, 0.05% Tween 20, 6 mM DTT). Test compounds were prepared as 111× stocks in 100% DMSO. Kd values were determined using an 11-point 3-fold compound dilution series with three DMSO control points. All compounds for Kd measurements are distributed by acoustic transfer (non-contact dispensing) in 100% DMSO. The compounds were then diluted directly into the assays such that the final concentration of DMSO was 0.9%. All reactions performed in polypropylene 384-well plate. Each was a final volume of 0.02 mL. The assay plates were incubated at room temperature with shaking for 1 hour and the affinity beads were washed with wash buffer (lx PBS, 0.05% Tween 20). The beads were then re-suspended in elution buffer (lx PBS, 0.05% Tween 20, 0.5 μM nonbiotinylated affinity ligand) and incubated at room temperature with shaking for 30 minutes. The kinase concentration in the eluates was measured by qPCR.

Test [4] has as its system T-Rex 293 cell line SC3 cells having increased expression of androgen receptor protein. As to the kind of experiment: Cellular growth inhibition, T-Rex 293 SC3 cells with doxycycline (increased androgen receptor expression). The format is cell-based. The following applies: with 10 ng/mL doxycycline (increased androgen receptor), 72 hours, CellTiter-Glo 2.0. In outline:
as §1

For test [5], the system named is VCaP cells. As to the kind of experiment: Cellular growth inhibition assay for VCaP cells. The format is cell-based. The following applies: Homo sapiens, 72 hours, CellTiter-Glo 2.0.

SMILES strings stand for the structures. pKd: −log10 of the molar value.

Turning to `CC1(C)[C@H](NC(=O)c2cnc(N3CCC(OCCOCCOCCOCCOCCNS(=O)(=O)c4ccc(Nc5ncc(Br)c(Nc6cccc(F)c6C(N)=O)n5)cc4)CC3)nc2)C(C)(C)[C@H]1Oc1ccc(C#N)c(Cl)c1` [Compound I-15], the GI50 (commonly the concentration that inhibits growth by half) in test [1] is more than 3500 nM; in test [2], 500 to 1500 nM; in test [4], more than 3500 nM. The pKd – broadly, the negative decadic logarithm of the Kd, by convention in mol/L – in test [3] was less than 5.60.
Regarding `CC1(C)[C@H](NC(=O)c2cnc(N3CCC(OCCCN4CCN(CCCNS(=O)(=O)c5ccc(Nc6ncc(Br)c(Nc7cccc(F)c7C(N)=O)n6)cc5)CC4)CC3)nc2)C(C)(C)[C@H]1Oc1ccc(C#N)c(Cl)c1` [Compound I-17], the figures for the concentration for 50% growth inhibition (GI50) in test [1], in test [2] and in test [4] were more than 3500 nM, 1500 to 3000 nM and more than 3500 nM, respectively. Further, the negative-log Kd (pKd) in test [3] is less than 5.60.
Turning to `CN(CCOCCOCCOCCOCCNS(=O)(=O)c1ccc(Nc2ncc(Br)c(Nc3cccc(F)c3C(N)=O)n2)cc1)c1ncc(C(=O)N[C@H]2C(C)(C)[C@H](Oc3ccc(C#N)c(Cl)c3)C2(C)C)cn1` [Compound I-20], the GI50 was more than 3500 nM in test [1], less than 500 nM in test [2] and more than 3500 nM in test [4]. Also, the pKd in test [3] is less than 5.60.
`CN(CCCN1CCN(CCCNS(=O)(=O)c2ccc(Nc3ncc(Br)c(Nc4cccc(F)c4C(N)=O)n3)cc2)CC1)c1ncc(C(=O)N[C@H]2C(C)(C)[C@H](Oc3ccc(C#N)c(Cl)c3)C2(C)C)cn1` [Compound I-22, 2-((3-(4-(3-((4-((5-bromo-4-((2-carbamoyl-3-fluorophenyl)amino)pyrimidin-2-yl)amino)phenyl)sulfonamido)propyl)piperazin-1-yl)propyl) (methyl)amino)-N-((1r,3r)-3-(3-chloro-4-cyanophenoxy)-2,2,4,4-tetramethylcyclobutyl) pyrimidine-5-carboxamide]: the GI50 is more than 3500 nM in test [1], less than 500 nM in test [2] and 1000 to 3500 nM in test [4]. In test [3], this compound showed a pKd of 5.60 to 6.30.
`CCc1cnn2c(NCc3ccc(N(C)CC4CCN(CC5CCN(c6ncc(C(=O)N[C@H]7C(C)(C)[C@H](Oc8ccc(C#N)c(Cl)c8)C7(C)C)cn6)CC5)CC4)nc3)cc(N3CCCC[C@H]3CCO)nc12` [Compound I-59, N-((1r,3r)-3-(3-chloro-4-cyanophenoxy)-2,2,4,4-tetramethylcyclobutyl)-2-(4-((4-(((5-(((3-ethyl-5-((S)-2-(2-hydroxyethyl)piperidin-1-yl)pyrazolo[1,5-a]pyrimidin-7-yl)amino)methyl)pyridin-2-yl)(methyl)amino)methyl)piperidin-1-yl)methyl)piperidin-1-yl)pyrimidine-5-carboxamide]: the GI50 in test [1] is 100 to 1000 nM; in test [5], 100 to 1000 nM; in test [2], less than 500 nM; in test [4], less than 100 nM. The same compound gave a pKd in test [3] of more than 7.30.
As to `CCc1cnn2c(NCc3ccc(OCCOCCN4CC5CN(c6ncc(C(=O)N[C@H]7C(C)(C)[C@H](Oc8ccc(C#N)c(Cl)c8)C7(C)C)cn6)CC5C4)nc3)cc(N3CCCC[C@H]3CCO)nc12` (some centres unmarked) [Compound I-62], the GI50 is 100 to 1000 nM in test [1], 100 to 1000 nM in test [5] and less than 100 nM in test [4]. In test [3], the negative logarithm of the Kd (pKd) was 6.30 to 7.30.
As for `CCc1cnn2c(NCc3ccc(OCCOC4CCN(C5CN(c6ncc(C(=O)N[C@H]7C(C)(C)[C@H](Oc8ccc(C#N)c(Cl)c8)C7(C)C)cn6)C5)CC4)nc3)cc(N3CCCC[C@H]3CCO)nc12` [Compound I-63], the GI50 in test [1], in test [5] and in test [4] was less than 100 nM each time. In test [3], the pKd was more than 7.30.
With `COc1cc(F)ccc1-c1ccnc2[nH]c(C3CCN(CCOCCOC4CCN(c5ncc(C(=O)N[C@H]6C(C)(C)[C@H](Oc7ccc(C#N)c(Cl)c7)C6(C)C)cn5)CC4)CC3)cc12` [Compound I-69], the GI50 fell in the range of 100 to 1000 nM in test [1], 100 to 1000 nM in test [5], 1500 to 3000 nM in test [2] and 100 to 1000 nM in test [4]. The pKd in test [3] is more than 7.30.
Consider `COc1cc(F)ccc1-c1ccnc2[nH]c(C3CCN(CCOCCOCCOCCOC4CCN(c5ncc(C(=O)N[C@H]6C(C)(C)[C@H](Oc7ccc(C#N)c(Cl)c7)C6(C)C)cn5)CC4)CC3)cc12` [Compound I-70], for which the GI50 in test [1] lay in the range of 1000 to 3500 nM; in test [5], 100 to 1000 nM; in test [2] it was 1500 to 3000 nM; in test [4], 1000 to 3500 nM. The compound also showed a negative-log Kd (pKd) in test [3] of 6.30 to 7.30.
For the compound `CC(C)n1cc(-c2ccnc3[nH]c(C4CCN(CCOCCOC5CCN(c6ncc(C(=O)N[C@H]7C(C)(C)[C@H](Oc8ccc(C#N)c(Cl)c8)C7(C)C)cn6)CC5)CC4)cc23)ccc1=O` [Compound I-76], the GI50 in test [1] was 100 to 1000 nM; in test [5] it was less than 100 nM; in test [2], less than 500 nM; in test [4], 100 to 1000 nM. In test [3], this compound gave a pKd of more than 7.30.
Consider `CC(C)n1cc(-c2ccnc3[nH]c(C4CCN(CCOCCOCCOCCOC5CCN(c6ncc(C(=O)N[C@H]7C(C)(C)[C@H](Oc8ccc(C#N)c(Cl)c8)C7(C)C)cn6)CC5)CC4)cc23)ccc1=O` [Compound I-78], for which the GI50 is 100 to 1000 nM in test [1], less than 100 nM in test [5], 500 to 1500 nM in test [2] and less than 100 nM in test [4]. This compound also had a pKd in test [3] of more than 7.30.
In the case of `CC1(C)[C@H](NC(=O)c2cnc(N3CCC(OCCN4C/C=C/CCOc5cccc(c5)-c5ccnc(n5)Nc5cccc(c5)C4)CC3)nc2)C(C)(C)[C@H]1Oc1ccc(C#N)c(Cl)c1` [Compound I-87, N-[3-(3-chloro-4-cyano-phenoxy)-2,2,4,4-tetramethyl-cyclobutyl]-2-[4-[2-[(16E)-20-oxa-5,7,14,27-tetrazatetracyclo [19.3.1.12,6.18,12]heptacosa-1(24),2(27),3,5,8(26),9,11,16, 21(25),22-decaen-14-yl]ethoxy]-1-piperidyl]pyrimidine-5-carboxamide], the concentration for 50% growth inhibition (GI50) in test [1] was more than 3500 nM; in test [5], more than 3500 nM; in test [2], 500 to 1500 nM; in test [4], 100 to 1000 nM. In test [3], this compound showed a pKd of 5.60 to 6.30.
In the case of `CC1(C)[C@H](NC(=O)c2cnc(N3CCC(OCCOCCOCCOCCN4C/C=C/CCOc5cccc(c5)-c5ccnc(n5)Nc5cccc(c5)C4)CC3)nc2)C(C)(C)[C@H]1Oc1ccc(C#N)c(Cl)c1` [Compound I-90], the GI50 was more than 3500 nM in test [1], 100 to 1000 nM in test [5], less than 500 nM in test [2] and 100 to 1000 nM in test [4]. In test [3], this compound gave a pKd of 5.60 to 6.30.

Source of the values: patent publication US20260159520A1, “HETEROBIFUNCTIONAL COMPOUNDS AND METHODS OF TREATING DISEASE” (Halda Therapeutics OpCo, Inc., priority 2022, published 2026).
